Test results reported in the NIST ThermoML archive (doi:10.1016/j.fluid.2011.07.007).
Values joined by “and” are separate entries in the source; they are usually repeats but may differ in a detail not shown here. Identical values can stand only once. Counter-ions that a name gives are not always drawn. ± gives the expanded uncertainty stated by the source.

Settings: Transpiration method

CC(C)(C)OC(=O)CCCC(=O)OC(C)(C)C [di-tert-butyl glutarate]
Liquid
Settings	vapor or sublimation pressure [kPa]
295.2 K	0.00104 ± 9e-05
297.2 K	0.0013 ± 0.00011
299.2 K	0.00157 ± 0.00012
301.2 K	0.00187 ± 0.00015
303.2 K	0.00231 ± 0.00018
305.2 K	0.00276 ± 0.00022
307.2 K	0.00334 ± 0.00026
309.2 K	0.00393 ± 0.00031
311.2 K	0.00471 ± 0.00038
313.2 K	0.00581 ± 0.00045
315.2 K	0.00674 ± 0.00052
317.2 K	0.00801 ± 0.00061
319.2 K	0.00909 ± 0.00068
321.2 K	0.0104 ± 0.0008
323.2 K	0.0123 ± 0.001
325.2 K	0.0152 ± 0.0012

CC(C)OC(=O)C(=O)OC(C)C [diisopropyl oxalate]
Liquid
Settings	vapor or sublimation pressure [kPa]
287.5 K	0.0149 ± 0.0012
290.4 K	0.0197 ± 0.0016
293.3 K	0.0254 ± 0.002
297.3 K	0.035 ± 0.0027
300.3 K	0.0452 ± 0.0035
303.3 K	0.0576 ± 0.0044
306.3 K	0.0712 ± 0.0054
308.3 K	0.0846 ± 0.0066
311.2 K	0.1081 ± 0.0082
313.3 K	0.1266 ± 0.0094
316.3 K	0.151 ± 0.011
318.4 K	0.1722 ± 0.013
318.5 K	0.1731 ± 0.013
321.2 K	0.2066 ± 0.015
322.4 K	0.2247 ± 0.018
323.6 K	0.2533 ± 0.019
326.4 K	0.2884 ± 0.021
330.5 K	0.3766 ± 0.028

CC(C)OC(=O)CCCC(=O)OC(C)C [bis(1-methylethyl) pentanedioate]
Liquid
Settings	vapor or sublimation pressure [kPa]
294.5 K	0.00137 ± 0.00011
297.5 K	0.00175 ± 0.00014
300.5 K	0.00246 ± 0.0002
303.4 K	0.00328 ± 0.00026
306.4 K	0.00433 ± 0.00035
309.5 K	0.00594 ± 0.00045
312.5 K	0.00714 ± 0.00055
315.5 K	0.00958 ± 0.00076
318.6 K	0.0126 ± 0.001
322.7 K	0.017 ± 0.0013
324.4 K	0.0199 ± 0.0015
327.4 K	0.0251 ± 0.0019

CC(C)(C)OC(=O)C(=O)OC(C)(C)C [di-tert-butyl oxalate]
Settings	vapor or sublimation pressure [kPa]
293.8 K, Crystal	0.00391 ± 0.00038
296.7 K, Crystal	0.0058 ± 0.00049
299.7 K, Crystal	0.00793 ± 0.00065
302.7 K, Crystal	0.0109 ± 0.0009
305.7 K, Crystal	0.0154 ± 0.0013
308.3 K, Crystal	0.0201 ± 0.0019
308.8 K, Crystal	0.0217 ± 0.002
311.2 K, Crystal	0.0276 ± 0.0024
311.7 K, Crystal	0.0293 ± 0.0025
314.2 K, Crystal	0.0384 ± 0.0032
314.7 K, Crystal	0.0405 ± 0.0033
317.6 K, Crystal	0.0574 ± 0.0047
320.7 K, Crystal	0.0769 ± 0.006
323.2 K, Crystal	0.0956 ± 0.0076
323.6 K, Crystal	0.1 ± 0.0079
326.6 K, Crystal	0.1313 ± 0.01
329.6 K, Crystal	0.1637 ± 0.013
333.2 K, Crystal	0.2253 ± 0.023
333.7 K, Crystal	0.2468 ± 0.024
338.2 K, Crystal	0.3739 ± 0.028
338.6 K, Crystal	0.3689 ± 0.028
345.6 K, Liquid	0.4066 ± 0.03
346.7 K, Liquid	0.4358 ± 0.033
347.6 K, Liquid	0.4703 ± 0.034
348.6 K, Liquid	0.4816 ± 0.035
351.5 K, Liquid	0.5565 ± 0.041
351.7 K, Liquid	0.5963 ± 0.044
352.5 K, Liquid	0.6078 ± 0.044
354.5 K, Liquid	0.6715 ± 0.049
356.5 K, Liquid	0.7609 ± 0.056
357.5 K, Liquid	0.799 ± 0.059
360.7 K, Liquid	0.9613 ± 0.074
361.2 K, Liquid	1 ± 0.076
363.7 K, Liquid	1.053 ± 0.076
366.2 K, Liquid	1.252 ± 0.093
371.2 K, Liquid	1.638 ± 0.12

CC(C)OC(=O)CC(=O)OC(C)C [diisopropyl malonate]
Liquid
Settings	vapor or sublimation pressure [kPa]
289.3 K	0.00784 ± 0.00064
292.5 K	0.0105 ± 0.0008
295.4 K	0.0139 ± 0.0011
298.4 K	0.0172 ± 0.0013
301.4 K	0.0228 ± 0.0018
304.4 K	0.0293 ± 0.0023
307.4 K	0.0375 ± 0.0029
310.4 K	0.0471 ± 0.0036
313.4 K	0.0581 ± 0.0044
315.4 K	0.0688 ± 0.0053
316.5 K	0.0757 ± 0.0057
318.5 K	0.0862 ± 0.0066
319.4 K	0.0965 ± 0.0072
321.5 K	0.1068 ± 0.0078
322.5 K	0.1138 ± 0.009
323.5 K	0.1282 ± 0.01
325.4 K	0.1468 ± 0.011

CC(C)(C)OC(=O)CCCCC(=O)OC(C)(C)C [di-tert-butyl adipate]
Liquid
Settings	vapor or sublimation pressure [kPa]
322.6 K	0.00711 ± 0.00055
323.4 K	0.00757 ± 0.00058
326.2 K	0.00926 ± 0.0007
329 K	0.0113 ± 0.00086
331.8 K	0.01428 ± 0.0011
336 K	0.01907 ± 0.0014
338 K	0.02216 ± 0.0017
341 K	0.02859 ± 0.0021
344 K	0.03272 ± 0.0024
346.9 K	0.04033 ± 0.0031
349.9 K	0.0511 ± 0.0038
352.9 K	0.06145 ± 0.0046
355.9 K	0.07647 ± 0.0057
358.9 K	0.09287 ± 0.0069
361.9 K	0.1117 ± 0.0079
362.4 K	0.1137 ± 0.0081
362.5 K	0.1144 ± 0.0082
366.3 K	0.1453 ± 0.011

CC(C)(C)OC(=O)CC(=O)OC(C)(C)C [bis(1,1-dimethylethyl) propanedioate]
Liquid
Settings	vapor or sublimation pressure [kPa]
293.7 K	0.00787 ± 0.00064
295.7 K	0.00952 ± 0.00075
298.6 K	0.0122 ± 0.001
301.7 K	0.0159 ± 0.0012
303.6 K	0.0186 ± 0.0014
306.6 K	0.023 ± 0.0017
308.6 K	0.0274 ± 0.0022
310.7 K	0.0337 ± 0.0027
312.6 K	0.0399 ± 0.0031
315.6 K	0.0494 ± 0.0036
317.6 K	0.055 ± 0.0042
319.6 K	0.0663 ± 0.0049
321.6 K	0.0714 ± 0.0053
323.6 K	0.0845 ± 0.0065
324.7 K	0.0934 ± 0.0071
327.6 K	0.1125 ± 0.0089
333.5 K	0.1828 ± 0.013
336.5 K	0.2131 ± 0.016
339.5 K	0.2702 ± 0.02
342.5 K	0.333 ± 0.025
345.5 K	0.3886 ± 0.028

CC(C)(C)OC(=O)CCC(=O)OC(C)(C)C [di-tert-butyl succinate]
Liquid
Settings	vapor or sublimation pressure
323.2 K	0.0331 ± 0.0026 kPa
326.2 K	0.0419 ± 0.0032 kPa
331.2 K	0.0592 ± 0.0044 kPa
333.2 K	0.0697 ± 0.0054 kPa
335.2 K	0.0817 ± 0.006 kPa
337.2 K	0.0885 ± 0.0066 kPa
339.2 K	0.1043 ± 0.0079 kPa
341.2 K	0.1198 ± 0.0089 kPa
343.2 K	0.1351 ± 0.01 kPa
345.2 K	0.1498 ± 0.011 kPa and 0.1534 ± 0.011 kPa
347.2 K	0.1716 ± 0.013 kPa
349.2 K	0.2009 ± 0.015 kPa
351.2 K	0.2187 ± 0.016 kPa
353.2 K	0.2523 ± 0.019 kPa
355.2 K	0.2842 ± 0.021 kPa

CC(C)OC(=O)CCC(=O)OC(C)C [bis(1-methylethyl) butanedioate]
Liquid
Settings	vapor or sublimation pressure [kPa]
304.4 K	0.0113 ± 0.0009
307.4 K	0.0147 ± 0.0011
310.4 K	0.0186 ± 0.0014
313.4 K	0.0236 ± 0.0018
316.4 K	0.0301 ± 0.0023
318.5 K	0.0352 ± 0.0027
321.4 K	0.0448 ± 0.0034
323.4 K	0.0527 ± 0.004
326.4 K	0.0651 ± 0.0049
328.5 K	0.0749 ± 0.0058
331.4 K	0.096 ± 0.0073
333.3 K	0.1092 ± 0.0081
